Reference: paper PMC6263544, “Second-generation pterocarpanquinones: synthesis and antileishmanial activity” (The Journal of Venomous Animals and Toxins Including …, 2018)

Each compound was assayed on L. amazonensis promastigotes (assay: Antipromastigote test, L. amazonensis). Conditions: Leishmania amazonensis; 72 h, resazurin, Mean ± SEM; read-out: L. amazonensis Promastigote IC50.
Format: cell-based, Leishmania amazonensis
Method: New cultures of promastigotes were obtained from infected Balb/C mice. […] A stock solution of the compounds was prepared at 50 mM in dimethylsulfoxide (Sigma Aldrich). The maximum solvent concentration used in the assays was 0.4% in a final volume per well of 200 μL. The cultures were initiated with 1.0 × 10^6 cells/ml and maintained at 26 °C for 72 h. Inhibition of parasitic growth was determined by cell viability indicator, resazurin [23], with excitation λ = 560 nm and emission λ = 590 nm or the number of parasites was then counted in a Neubauer chamber (experiments with L. braziliensis).

Question: With COc1ccc2c(c1)[C@H]1OC3=C(C(=O)c4ccccc4C3=O)[C@H]1CC2 (relative stereo) [LQB 475 (2f)] as the compound, how does the IC50 read?
Answer: Its IC50 is 0.4 ± 0.06 µM.

Each compound was assayed on L. braziliensis promastigotes (assay: Antipromastigote test, L. braziliensis). Conditions: Leishmania braziliensis; 72 h, parasites counted in Neubauer chamber, Mean ± SEM; read-out: L. braziliensis Promastigote IC50.
Format: cell-based
Method: L. braziliensis (MCAN/BR/98/R619) was routinely isolated from hamster lesions and maintained as promastigotes in Schneider’s insect medium containing 20% HIFCS and 100 μg/ml gentamicin (Schering-Plough). New cultures of promastigotes were obtained from an infected hamster.
(§1) Leishmania promastigotes of three species were incubated in 96-well plates (Nunc, Roskilde, Denmark) under the conditions described above in either the absence or presence of different concentrations of pterocarpanquinones 2a-f (0-100 μM). A stock solution of the compounds was prepared at 50 mM in dimethylsulfoxide (Sigma Aldrich). The maximum solvent concentration used in the assays was 0.4% in a final volume per well of 200 μL. The cultures were initiated with 1.0 × 10^6 cells/ml and maintained at 26 °C for 72 h. Inhibition of parasitic growth was determined by cell viability indicator, resazurin [23], with excitation λ = 560 nm and emission λ = 590 nm or the number of parasites was then counted in a Neubauer chamber (experiments with L. braziliensis). The 50% inhibitory concentration (IC50) was determined by nonlinear regression analysis in the software GraphPad Prism 5.

Question: For COc1ccc2c(c1)[C@H]1OC3=C(C(=O)c4ccccc4C3=O)[C@H]1CC2 (relative stereo) [LQB 475 (2f)], which IC50 is on record?
Answer: The IC50 was 10.5 ± 1.01 µM.

These compounds were tested on L. infantum promastigotes (assay: Antipromastigote test, L. infantum). Conditions: Leishmania infantum; 72 h, resazurin, Mean ± SEM; read-out: L. infantum Promastigote IC50.
Format: cell-based, Leishmania infantum
Method: Leishmania infantum (MHOM/MA67ITMAP263) parasites were isolated from female BALB/c mice infected and cultured at 26 °C in Schneider’s insect medium supplemented with 20% HIFCS, streptomycin at 100 μg/ml and penicillin at 100 U/ml. New cultures of promastigotes were obtained from infected Balb/C mice.
as §1

Question: With COc1ccc2c(c1)[C@H]1OC3=C(C(=O)c4ccccc4C3=O)[C@H]1CC2 (relative stereo) [LQB 475 (2f)] as the compound, how does the IC50 read?
Answer: Its IC50 is 1.4 ± 0.7 µM.

What follows are compounds tested on intracellular amastigotes of L. amazonensis (assay: Antiamastigote test, L. amazonensis in mouse peritoneal macrophages). Conditions: CC50 in Macrophages/IC50 in intracellular amastigotes.
Format: cell-based, Leishmania amazonensis
Method: (§2) For the test against intracellular amastigotes of L. amazonensis and L. infantum, resident peritoneal macrophages (swiss mouse) were plated in RPMI (Sigma-Aldrich) at 2 × 10^6/mL (0.4 mL/well) in Lab-Tek eight-chamber slides (Nunc, Roskilde, Denmark) and incubated at 37 °C in 5% CO2 for 1 h. Stationary-phase L. amazonensis and L. infantum promastigotes were added at respective parasite/macrophage ratios of 3:1 and 5:1 for 4 h. After washing three times, pterocarpanquinones 2a-f at various concentrations were added for 72 h. Next, the slides were stained using an Instant Prov hematological dye system (Newprov, Curitiba, Brazil). The number of amastigotes was determined by counting at least 100 macrophages per sample.
(§3) The results were expressed as an infection index (% infected cells×number of amastigotes/total number of macrophages). The 50% inhibitory concentration (IC50) was determined by nonlinear regression analysis in the software GraphPad Prism 5.

Question: Which “L. amazonensis SI (Selective Index)” value does the source give for COc1ccc2c(c1)[C@H]1OC3=C(C(=O)c4ccccc4C3=O)[C@H]1CC2 (relative stereo) [LQB 475 (2f)] here?
Answer: The value was 23.76.

Same assay, conditions: Leishmania amazonensis, Peritoneal macrophage; intracellular amastigotes in mouse peritoneal macrophages, 72 h, infection index, Mean ± SEM; read-out: L. amazonensis Amastigote IC50

Question: With COc1ccc2c(c1)[C@H]1OC3=C(C(=O)c4ccccc4C3=O)[C@H]1CC2 (relative stereo) [LQB 475 (2f)] as the compound, how does the IC50 read?
Answer: The IC50 was 2.1 ± 0.4 µM.

Each compound was assayed on intracellular amastigotes of L. braziliensis (assay: Antiamastigote test, L. braziliensis in golden hamster macrophages). Conditions: CC50 in Macrophages/IC50 in intracellular amastigotes.
Format: cell-based
Method: Macrophages of golden hamsters were used in assays against intracellular amastigotes of L. braziliensis due to the natural resistance of mice. Resident macrophages were obtained from the peritoneal cells of golden hamsters after a peritoneal injection of 10 mL of Dulbecco’s Modified Eagle’s medium (DMEM) (Sigma-Aldrich). The peritoneal macrophages were plated onto glass coverslips placed within the wells of a 24-well culture plate and incubated at 37 °C in 5% CO2 for 1 h. After removing the nonadherent cells, the monolayers were infected with stationary-phase L. braziliensis promastigotes at a 5:1 parasite/macrophage ratio for 4 h. The infected macrophages were washed and incubated with several pterocarpanquinone concentrations (0-25 μM) for 72 h. The monolayers were then stained with Giemsa, and at least 100 infected macrophages per sample were counted under optical microscopy.
as §3

Question: For COc1ccc2c(c1)[C@H]1OC3=C(C(=O)c4ccccc4C3=O)[C@H]1CC2 (relative stereo) [LQB 475 (2f)], which “L. braziliensis SI (Selective Index)” value is on record?
Answer: Its value is 5.53.

Same assay, conditions: Leishmania braziliensis, Peritoneal macrophage; intracellular amastigotes in golden hamster peritoneal macrophages, 72 h, infection index, Mean ± SEM; read-out: L. braziliensis Amastigote IC50

Question: Which IC50 does the source give for COc1ccc2c(c1)[C@H]1OC3=C(C(=O)c4ccccc4C3=O)[C@H]1CC2 (relative stereo) [LQB 475 (2f)] here?
Answer: Its IC50 is 9.02 ± 1.64 µM.

The compounds below were run on intracellular amastigotes of L. infantum (assay: Antiamastigote test, L. infantum in mouse peritoneal macrophages). Conditions: Leishmania infantum, Peritoneal macrophage; intracellular amastigotes in mouse peritoneal macrophages, 72 h, infection index, Mean ± SEM; read-out: L. infantum Amastigote IC50.
Format: cell-based, Leishmania infantum
Method: as §2, §3

Question: With COc1ccc2c(c1)[C@H]1OC3=C(C(=O)c4ccccc4C3=O)[C@H]1CC2 (relative stereo) [LQB 475 (2f)] as the compound, how does the IC50 read?
Answer: Its IC50 is > 40 µM.

The compounds below were run on promastigotes of L. infantum (assay: Mitochondrial membrane potential (ΔΨm) test (rhodamine 123, flow cytometry)). Conditions: 1.25 μM, 4 h, Rh123, IV = (MT − MC)/MC, negative = depolarization, mean ± SD.
Format: cell-based, Leishmania infantum
Method: To determine the effect of pterocarpanquinones 2a-f on the ΔΨm, promastigotes of L. infantum (5 × 10^6 cells/mL) were incubated in the presence of 0–5 μM of derivatives at 26 °C. After 4 h, the parasites were incubated for 15 min with 10 μg/mL rhodamine 123 (Rh123) (Sigma-Aldrich). Data acquisition of 10,000 events and analysis were performed using the flow cytometer FACSCalibur (Becton-Dickinson, Rutherford, NJ, USA). Alteration in ΔΨm was quantified using an index of variation (IV) obtained by the eq. IV = (MT − MC)/MC [24], where MT is the median of the fluorescence of Rh123 for treated parasites and MC is the median of the fluorescence of the control parasites. Negative IV values correspond to depolarization of the mitochondrial membrane. The FCCP (Carbonyl cyanide-p-Trifluoromethoxyphenylhydrazone) 20 μM was used as positive control.

Question: Which “Δѱm index of variation (IV)” value does the source give for COc1ccc2c(c1)[C@H]1OC3=C(C(=O)c4ccccc4C3=O)[C@H]1CC2 (relative stereo) [LQB 475 (2f)] here?
Answer: Its value is −0.668 ± 0.01.

Same assay, conditions: 2.5 μM, 4 h, Rh123, IV = (MT − MC)/MC, negative = depolarization, mean ± SD

Question: With COc1ccc2c(c1)[C@H]1OC3=C(C(=O)c4ccccc4C3=O)[C@H]1CC2 (relative stereo) [LQB 475 (2f)] as the compound, how does the “Δѱm index of variation (IV)” value read?
Answer: Its value is −0.707 ± 0.01.

Same assay, conditions: 20 μM (positive control), Rh123, IV = (MT − MC)/MC, mean ± SD

Question: For N#CC(C#N)=NNc1ccc(OC(F)(F)F)cc1 [FCCP, Carbonyl cyanide-p-Trifluoromethoxyphenylhydrazone, reference compound], which “Δѱm index of variation (IV)” value is on record?
Answer: The value was −0.727 ± 0.01.

Same assay, conditions: 4 h, rhodamine 123, flow cytometry

Question: For COc1ccc2c(c1)[C@H]1OC3=C(C(=O)c4ccccc4C3=O)[C@H]1CC2 (relative stereo) [LQB 475 (2f)], which “effect on ΔΨm (in words)” value is on record?
Answer: Its value is “greater depolarization”.
